The target in this assay is T1, Isoform Truncated 1 of E3 ubiquitin-protein ligase CBL-B [36-427] (Homo sapiens, UniProt Q13191).
T1 construct: 36-427
Kind of assay: Binding Affinity of Example 1 Compounds to Cbl-b Protein. The protocol: Compounds were assessed for binding activity to Cbl-b by their ability to compete with and displace a probe comprised of BODIPY-FL fluorophore conjugated to a Cbl-b inhibitor (see Example 54 in WO2020264398). In the assay, a 36-427 aa truncated form of Cbl-b with an N-terminus Avi-tag was incubated 20 mM HEPES pH 7.5, 150 mM NaCl, 0.01% Triton X-100, 0.1% BSA, 0.5 mM TCEP buffer with streptavidin-terbium (Cisbio). After one hour of incubation at room temperature, 1 uM each of fluorescent probe and compound were combined with the reaction mixture. Compounds with Cbl-b binding activity competitively displace the fluorophore tagged inhibitor thereby disrupting the FRET signal from the terbium-BODIPY-FL complex. The reaction mixtures were incubated for one additional hour at room temperature to allow for competition between inhibitor and candidate compounds to occur. The time resolved FRET (TR-FRET) signal was then read at 520/620 […] ([…]) using a Spectramax M5e plate reader (Molecular Devices) to measure probe displacement. Compounds with Cbl-b binding activity had decreased FRET signal owing to disruption of the terbium-BODIPY-FL FRET complex. Standard methods in PRISM were used to calculate the compound IC50 values from the experimental data.

Turning to `CCSc1cc(C2(Cc3nncn3C)COC2)cc(N2CC3C(C(N)=O)=CC(CN4CCC[C@H](C)C4)=CC3C2=O)n1` (stereo partly specified) [US20250304563, Compound 145], the IC50 (in general, the point on the concentration scale where inhibition reaches its midpoint) is “in the range around 12.5 nM”.

Source of the values: BindingDB's records for patent US20250304563 (Orum Therapeutics, 2025).
